Calls of active or inactive are those of the source. The rule behind the calls is not given here.
Assays:
Assay type in all cases: functional, organism-based
Arabidopsis thaliana [1] = assay: Growth inhibition of Arabidopsis thaliana ecotype CSH-1 assessed as inhibition of germination
Arabidopsis thaliana [2] = assay: Growth inhibition of Arabidopsis thaliana ecotype Columbia assessed as inhibition of germination
Arabidopsis thaliana [3] = assay: Growth inhibition of Arabidopsis thaliana ecotype Kyoto assessed as inhibition of germination
Arabidopsis thaliana [4] = assay: Growth inhibition of Arabidopsis thaliana ecotype Columbia assessed as inhibition of germination at 100 uM
Arabidopsis thaliana [5] = assay: Growth inhibition of Arabidopsis thaliana ecotype LIN assessed as inhibition of germination
Arabidopsis thaliana [6] = assay: Growth inhibition of Arabidopsis thaliana ecotype Br-0 assessed as inhibition of germination
Arabidopsis thaliana [7] = assay: Growth inhibition of Arabidopsis thaliana ecotype Rld-2 assessed as decrease in hypocotyl length
Arabidopsis thaliana [8] = assay: Growth inhibition of Arabidopsis thaliana ecotype Co assessed as inhibition of germination
Arabidopsis thaliana [9] = assay: Growth inhibition of Arabidopsis thaliana ecotype Ra-0 assessed as inhibition of germination
Arabidopsis thaliana [10] = assay: Growth inhibition of Arabidopsis thaliana ecotype Ull2-3 assessed as inhibition of germination
Arabidopsis thaliana [11] = assay: Growth inhibition of Arabidopsis thaliana ecotype Pog-0 assessed as inhibition of germination
Arabidopsis thaliana [12] = assay: Growth inhibition of Arabidopsis thaliana ecotype KZ1 assessed as inhibition of germination
Arabidopsis thaliana [13] = assay: Growth inhibition of Arabidopsis thaliana ecotype RRS7 assessed as decrease in root length
Arabidopsis thaliana [14] = assay: Growth inhibition of Arabidopsis thaliana ecotype Columbia assessed as decrease in root length

Q: What does the source list for CCOc1ccc(S(=O)(=O)NCc2ccccn2)c2ccccc12 [PYRABACTIN B]?
A: IC50 (Arabidopsis thaliana [1]): 2500 nM; IC50 (Arabidopsis thaliana [2]): 8.4 µM

Q: What does the source list for CCN(CC)c1ccc(C(=O)c2ccccc2C(=O)O)c(O)c1?
A: IC50 (Arabidopsis thaliana [3]): 12.5 µM; growth inhibition (GI) (Arabidopsis thaliana [4]): inactive

Q: O=C(c1ccccc1Cl)c1coc2ccccc2c1=O was tested. Which IC50 (Arabidopsis thaliana [5]) did it give?
A: Its IC50 is ≤ 14 µM.

Q: For O=[N+]([O-])c1ccc(CN2CCCCC2c2cccnc2)cc1 (stereo not drawn), which “growth inhibition (GI)” value (Arabidopsis thaliana [4]) is on record?
A: The value was “inactive”.

Q: What about the IC50 (Arabidopsis thaliana [6]) of the same compound?
A: Its IC50 is 3000 nM.

Q: For CCOC(=O)N1CCN(c2cc(C)c3ccc(Cl)cc3n2)CC1 [POLARAZINE], which IC50 (Arabidopsis thaliana [7]) is on record?
A: The IC50 was 13 µM.

Q: Which results are given for CCc1ccc(CN2CCCCC2c2cccnc2)cc1 (stereo not drawn)?
A: growth inhibition (GI) (Arabidopsis thaliana [4]): inactive; IC50 (Arabidopsis thaliana [8]): 10 µM

Q: What does the source list for CC1CCC(C(C)C)C(=O)/C1=C\c1ccc(N)cc1 (stereo not drawn)?
A: IC50 (Arabidopsis thaliana [9]): 7 µM; growth inhibition (GI) (Arabidopsis thaliana [4]): inactive

Q: Which IC50 (Arabidopsis thaliana [10]) does the source give for OC(c1ccccc1)(c1ccccc1)c1c[nH]cn1 here?
A: Its IC50 is 17 µM.

Q: What about the “growth inhibition (GI)” value (Arabidopsis thaliana [4]) of the same compound?
A: Its value is “inactive”.

Q: Which IC50 (Arabidopsis thaliana [11]) does the source give for COc1ccc2occ(C(=O)c3ccccc3Cl)c(=O)c2c1 here?
A: The IC50 was 3000 nM.

Q: With O=S(=O)(NCc1ccccn1)c1ccc(Br)c2ccccc12 [PYRABACTIN A] as the compound, how does the IC50 (Arabidopsis thaliana [12]) read?
A: Its IC50 is 2200 nM.

Q: Which IC50 (Arabidopsis thaliana [13]) does the source give for Cc1ccc(C(C)C)c(OCC(=O)N/N=C/c2cccnc2)c1 [CHUBOXYPYR] here?
A: Its IC50 is 22 µM.

Q: What about the IC50 (Arabidopsis thaliana [14]) of the same compound?
A: Its IC50 is 80 µM.
